Assay results from the supplement of paper PMC10307832.

Columns and labels:
Assay in all cases: relative viability (nuclei count vs DMSO), 5 days (fraction); higher = more cells survive
[1] = compound: CN(C)C[C@@H]1CCn2cc(c3ccccc32)C2=C(C(=O)NC2=O)c2cn(c3ccccc23)CCO1 [Ruboxistaurin] + CC(=O)c1c(C)c2cnc(Nc3ccc(N4CCNCC4)cn3)nc2n(C2CCCC2)c1=O [Palbociclib] (partner 0.5 µM)
In short: (§1)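 Nuclei were stained with Hoechst during a one-step fixation (final 0.05% Triton X-100, 1% formaldehyde, 1 ug/ml Hoechst) carried out 5 days after dosing, then counted on 4× images. The cells, lung cancer lines in 1536-well plates, had been dosed by pin tool the day after seeding with one drug alone or a fixed anchor-drug dose plus five library-drug doses (not always all listed) in √10 steps. Relative viability is the nuclei count in treated wells divided by that in vehicle wells, and each value is the median of duplicate plates.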

[2] = compound: CN(C)C[C@@H]1CCn2cc(c3ccccc32)C2=C(C(=O)NC2=O)c2cn(c3ccccc23)CCO1 [Ruboxistaurin] + CC(C)C[C@H](NC(=O)[C@H](Cc1ccccc1)NC(=O)c1cnccn1)B(O)O [Bortezomib] (partner 0.002 µM)
In short: as §1

[3] = compound: CN(C)C[C@@H]1CCn2cc(c3ccccc32)C2=C(C(=O)NC2=O)c2cn(c3ccccc23)CCO1 [Ruboxistaurin] + COc1cc2c(Oc3ccc(NC(=O)C4(C(=O)Nc5ccc(F)cc5)CC4)cc3F)ccnc2cc1OCCCN1CCOCC1 [Foretinib] (partner 0.25 µM)
In short: as §1

[4] = compound: CN(C)C[C@@H]1CCn2cc(c3ccccc32)C2=C(C(=O)NC2=O)c2cn(c3ccccc23)CCO1 [Ruboxistaurin] + Nc1nc2[nH]cc(CCc3ccc(C(=O)N[C@@H](CCC(=O)O)C(=O)O)cc3)c2c(=O)[nH]1 [Pemetrexed] (partner 0.2 µM)
In short: as §1

[5] = compound: CN(C)C[C@@H]1CCn2cc(c3ccccc32)C2=C(C(=O)NC2=O)c2cn(c3ccccc23)CCO1 [Ruboxistaurin] + Nc1ncn([C@H]2C[C@H](O)[C@@H](CO)O2)c(=O)n1 [Decitabine] (partner 2 µM)
In short: as §1

Cell Line	relative viability ([1]; first compound 0.08 µM)	relative viability ([1]; first compound 0.8 µM)	relative viability ([1]; first compound 2.53 µM)	relative viability ([1]; first compound 8 µM)	relative viability ([2]; first compound 0.08 µM)	relative viability ([2]; first compound 0.8 µM)	relative viability ([2]; first compound 2.53 µM)	relative viability ([2]; first compound 8 µM)	relative viability ([3]; first compound 0.08 µM)	relative viability ([3]; first compound 0.8 µM)	relative viability ([3]; first compound 2.53 µM)	relative viability ([3]; first compound 8 µM)	relative viability ([4]; first compound 0.08 µM)	relative viability ([4]; first compound 0.8 µM)	relative viability ([4]; first compound 2.53 µM)	relative viability ([4]; first compound 8 µM)	relative viability ([5]; first compound 0.08 µM)	relative viability ([5]; first compound 0.8 µM)	relative viability ([5]; first compound 2.53 µM)	relative viability ([5]; first compound 8 µM)
EKVX	0.414	0.318	0.424	0.321	1.15	0.998	1.18	0.946	0.898	0.694	0.848	0.738	0.413	0.401	0.373	0.393	0.334	0.246	0.34	0.426
EMC-BAC-2	0.51	0.506	0.514	0.493	1.1	0.99	1.04	0.962	1.03	0.872	1.03	0.51	0.419	0.415	0.384	0.383	0.968	0.949	0.979	0.842
EPLC-272H	0.312	0.352	0.285	0.317	1.04	0.691	1.01	1.01	0.853	0.548	0.703	0.472	0.32	0.359	0.352	0.325	0.473	0.289	0.354	0.341
H3255	0.318	0.336	0.329	0.364	0.854	0.844	0.869	0.732	0.849	0.867	0.879	0.876	0.595	0.556	0.614	0.534	0.608	0.54	0.603	0.538
HARA	0.214	0.263	0.266	0.326	1.22	1.04	1.15	0.465	0.842	0.865	0.993	0.813	0.262	0.297	0.236	0.248	0.502	0.496	0.567	0.592
HCC-15	0.748	0.694	0.734	0.745	1.09	1.01	1.14	1.2	1.1	0.927	1.12	1.09	0.224	0.207	0.221	0.2	0.699	0.576	0.666	0.685
HCC-44	0.986	1	0.953	0.968	0.956	0.868	0.983	0.969	–	–	–	–	0.666	0.556	0.642	0.638	0.974	0.882	1.01	1.02
HCC-78	0.509	0.47	0.497	0.501	0.711	0.427	0.618	0.397	0.553	0.593	0.546	0.528	0.85	0.91	0.828	0.945	0.636	0.663	0.756	0.635
